Measured values published in PMC8277517, “Anticolon Cancer Properties of Pyrazole Derivatives Acting through Xanthine Oxidase Inhibition” (Journal of Oncology, 2021).
Read-outs that look alike come from different tables or passages of the source.

How the values were obtained:
[1] = test system: MCF-7, HepG2, and HCT-116 cell lines; parameters: method as in doi:10.2174/1570178617666200320104923; conditions: read-out: IC50 inhibition of cell proliferation (range over cell lines); cited from earlier work
[2] = test system: HCT-116 colorectal carcinoma cell line; parameters: method as in doi:10.2174/1570178617666200320104923; conditions: Figure 1 design strategy, earlier lead; cited from earlier work
[3] = test system: MCF-7 breast adenocarcinoma cell line; parameters: method as in doi:10.2174/1570178617666200320104923; conditions: Figure 1 design strategy, earlier lead; cited from earlier work
[4] = test system: MCF-7 breast adenocarcinoma cell line; assay: Sulforhodamine B (SRB) cytotoxicity assay, MCF-7; format: cell-based; conditions: Homo sapiens, MCF7, 72 h
Experimental: (§1) Human hepatocellular carcinoma cell line (HepG-2, ATCC HB-8065), colorectal adenocarcinoma cell line (HCT-116, ATCC CCL-247), and breast adenocarcinoma cell line (MCF-7, ATCC HTB-22) were obtained from the American type culture collection (ATCC). Cells were maintained in RPMI-1640 supplemented with (100 μg/ml) penicillin (100 units/ml) and heat-inactivated fetal bovine serum (10% v/v) in a humidified, 5% (v/v) CO2 atmosphere at 37°C [13].
(§2) The cytotoxicity of the different compounds was tested against human tumor cells using the sulforhodamine B assay (SRB). Healthy growing cells were cultured in a 96-well tissue culture plate (3000 cells/well) for 24 hours to allow attachment of the cells to the plate before treatment with the tested compounds. […] Triplicate wells were incubated with different concentrations for 72 h and subsequently fixed with TCA (10% w/v) for 1 h at 4°C. […] After drying overnight, the SRB-stained cells were dissolved with tris-HCl and the color intensity was measured in a microplate reader at 540 nm.
(§3) The SRB assay is the “gold-standard” assay and is extensively used in the high-throughput screening program at the National Cancer Institute (NCI), USA. The SRB uses an aminoxanthene dye, which readily stains the cells through binding with the basic amino acids of cellular proteins. […]

[5] = test system: HepG2 hepatocellular carcinoma cell line; assay: Sulforhodamine B (SRB) cytotoxicity assay, HepG2; format: cell-based; conditions: Homo sapiens, 72 h
Experimental: as §1, §2, §3

[6] = test system: HCT-116 colorectal carcinoma cell line; assay: Sulforhodamine B (SRB) cytotoxicity assay, HCT-116; format: cell-based; conditions: Homo sapiens, 72 h
Experimental: as §1, §2, §3

Q: Which IC50 [1] does the source give for `CC1=NN(C(=O)c2ccncc2)C(=O)C1=NNc1ccc([N+](=O)[O-])cc1` [1-isonicotinoyl-3-methyl-4-[2-(4-nitrophenyl)hydrazono]-2-pyrazolin-5-one] here?
A: 0.2 to 3.4 µM

Q: For `COc1ccc(/N=N/c2c(C)nn(C(=O)c3ccncc3)c2C)cc1` [Aryldiazenyl pyrazoles (ADP)], which IC50 [2] is on record?
A: 61.3 µM

Q: Which IC50 [3] does the source give for `CC1=NN(C(=O)c2ccncc2)C(=O)/C1=N/Nc1ccc([N+](=O)[O-])cc1` [Arylhydrazono pyrazoles (AHP)] here?
A: 0.2 µM

Q: Which IC50 [4] does the source give for `COc1cccc2c1C(=O)c1c(O)c3c(c(O)c1C2=O)C[C@@](O)(C(=O)CO)C[C@@H]3O[C@H]1C[C@H](N)[C@H](O)[C@H](C)O1` [Doxorubicin] here?
A: 4.7 ± 0.08 µM

Q: And the IC50 [5]?
A: 3.9 ± 0.06 µM

Q: And the IC50 [6]?
A: 4.4 ± 0.04 µM
